Tests used:
Mus musculus [1] = experiment: Anesthetic activity in mouse assessed as onset time; format: functional
[2] = biological target: D(3) dopamine receptor (Homo sapiens) (UniProt P35462); experiment: Inhibition of D3 receptor (unknown origin) at 50 uM by radioligand receptor binding assay relative to control
[3] = Lipophilicity, logP of the compound; format: physicochemical; details: octanol/water
[4] = Therapeutic index, ratio of LD50 for toxicity in mouse to HD50 for anesthetic activity in mouse; format: organism-based; details: in vivo, read-out: TI
Oryctolagus cuniculus [5] = experiment: Anesthetic activity in rabbit assessed as time duration of loss of righting reflex; format: functional
[6] = biological target: Sigma non-opioid intracellular receptor 1 (Homo sapiens) (UniProt Q99720); experiment: Inhibition of sigma 1 receptor (unknown origin) at 50 uM by radioligand receptor binding assay relative to control
Sigma non-opioid intracellular receptor 1 (Homo sapiens), sequence (Q99720 whole entry): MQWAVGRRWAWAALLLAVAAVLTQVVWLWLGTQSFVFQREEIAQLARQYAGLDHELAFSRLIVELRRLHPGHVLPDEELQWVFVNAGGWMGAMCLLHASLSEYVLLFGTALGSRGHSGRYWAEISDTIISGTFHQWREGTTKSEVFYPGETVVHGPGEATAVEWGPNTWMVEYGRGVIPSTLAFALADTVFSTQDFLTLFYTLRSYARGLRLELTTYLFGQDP

[7] = biological target: D(2) dopamine receptor (Homo sapiens) (UniProt P14416); experiment: Inhibition of D2 receptor (unknown origin) at 50 uM by radioligand receptor binding assay relative to control
D(2) dopamine receptor (Homo sapiens), sequence (P14416 whole entry): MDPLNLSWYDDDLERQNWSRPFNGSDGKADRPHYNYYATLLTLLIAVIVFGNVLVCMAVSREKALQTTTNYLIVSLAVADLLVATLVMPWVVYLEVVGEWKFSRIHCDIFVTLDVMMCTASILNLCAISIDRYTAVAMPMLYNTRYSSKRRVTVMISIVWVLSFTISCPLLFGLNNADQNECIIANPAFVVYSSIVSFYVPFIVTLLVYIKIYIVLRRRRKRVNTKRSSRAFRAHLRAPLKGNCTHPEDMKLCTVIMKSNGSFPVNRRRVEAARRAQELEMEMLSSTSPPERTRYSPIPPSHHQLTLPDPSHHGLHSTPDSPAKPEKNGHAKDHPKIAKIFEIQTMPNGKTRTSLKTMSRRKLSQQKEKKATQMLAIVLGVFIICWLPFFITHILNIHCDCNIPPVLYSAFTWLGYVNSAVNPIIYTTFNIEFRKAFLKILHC

[8] = biological target: GABA-A receptor; anion channel (Homo sapiens) (UniProt P14867+P47870+P18507+P28472+P48169+Q99928+Q9UN88+P34903+O00591+O14764+Q8N1C3+P18505+P78334+P47869+P31644+Q16445); experiment: Inhibition of GABAA receptor (unknown origin) at 50 uM by radioligand receptor binding assay relative to control; format: protein-complex assay
Oryctolagus cuniculus [9] = experiment: Anesthetic activity in rabbit assessed as onset time; format: functional
Mus musculus [10] = experiment: Anesthetic activity in mouse assessed as concentration required to induce hypnotic effect; format: functional, organism-based
Mus musculus [11] = experiment: Anesthetic activity in mouse assessed as time to walk at 2 times of HD50 concentration; format: functional
[12] = Toxicity in rat assessed as lethal dose; details: in vivo
[13] = biological target: Cannabinoid receptor 2 (Homo sapiens) (UniProt P34972); experiment: Inhibition of CB2 receptor (unknown origin) at 50 uM by radioligand receptor binding assay relative to control
Cannabinoid receptor 2 (Homo sapiens), sequence (P34972 whole entry): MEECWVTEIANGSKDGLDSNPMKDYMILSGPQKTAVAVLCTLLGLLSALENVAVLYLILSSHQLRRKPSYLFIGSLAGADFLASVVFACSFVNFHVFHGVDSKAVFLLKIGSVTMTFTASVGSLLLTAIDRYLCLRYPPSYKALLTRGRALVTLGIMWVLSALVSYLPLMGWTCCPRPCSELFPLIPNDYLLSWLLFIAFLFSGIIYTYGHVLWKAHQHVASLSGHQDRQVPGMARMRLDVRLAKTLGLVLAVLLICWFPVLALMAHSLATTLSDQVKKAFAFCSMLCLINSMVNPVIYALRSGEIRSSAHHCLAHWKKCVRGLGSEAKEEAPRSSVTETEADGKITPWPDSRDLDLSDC

[14] = Therapeutic index, ratio of LD50 for toxicity in rabbit to HD50 for anesthetic activity in rabbit; details: read-out: TI
[15] = biological target: 5-hydroxytryptamine receptor 2A (Homo sapiens) (UniProt P28223); experiment: Inhibition of 5-HT2A receptor (unknown origin) at 50 uM by radioligand receptor binding assay relative to control
5-hydroxytryptamine receptor 2A (Homo sapiens), sequence (P28223 whole entry): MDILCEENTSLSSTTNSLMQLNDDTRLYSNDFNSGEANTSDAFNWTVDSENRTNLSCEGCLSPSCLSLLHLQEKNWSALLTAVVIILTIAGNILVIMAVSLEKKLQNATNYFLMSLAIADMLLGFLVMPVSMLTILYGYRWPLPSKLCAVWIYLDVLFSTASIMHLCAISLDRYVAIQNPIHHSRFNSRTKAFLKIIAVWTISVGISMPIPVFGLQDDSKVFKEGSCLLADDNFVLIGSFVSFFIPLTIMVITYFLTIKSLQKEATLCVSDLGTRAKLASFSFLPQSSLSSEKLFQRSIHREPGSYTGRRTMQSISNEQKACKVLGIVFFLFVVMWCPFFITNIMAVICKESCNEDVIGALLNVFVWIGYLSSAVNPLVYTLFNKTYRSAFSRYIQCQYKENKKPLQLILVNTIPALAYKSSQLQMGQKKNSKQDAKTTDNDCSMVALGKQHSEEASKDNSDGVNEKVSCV

Oryctolagus cuniculus [16] = experiment: Anesthetic activity in rabbit assessed as time to walk at 2 times of HD50 concentration; format: functional
[17] = biological target: Sodium-dependent serotonin transporter (Homo sapiens) (UniProt P31645); experiment: Inhibition of 5-HT transporter (unknown origin) at 50 uM by radioligand receptor binding assay relative to control
Sodium-dependent serotonin transporter (Homo sapiens), sequence (P31645 whole entry, looked up): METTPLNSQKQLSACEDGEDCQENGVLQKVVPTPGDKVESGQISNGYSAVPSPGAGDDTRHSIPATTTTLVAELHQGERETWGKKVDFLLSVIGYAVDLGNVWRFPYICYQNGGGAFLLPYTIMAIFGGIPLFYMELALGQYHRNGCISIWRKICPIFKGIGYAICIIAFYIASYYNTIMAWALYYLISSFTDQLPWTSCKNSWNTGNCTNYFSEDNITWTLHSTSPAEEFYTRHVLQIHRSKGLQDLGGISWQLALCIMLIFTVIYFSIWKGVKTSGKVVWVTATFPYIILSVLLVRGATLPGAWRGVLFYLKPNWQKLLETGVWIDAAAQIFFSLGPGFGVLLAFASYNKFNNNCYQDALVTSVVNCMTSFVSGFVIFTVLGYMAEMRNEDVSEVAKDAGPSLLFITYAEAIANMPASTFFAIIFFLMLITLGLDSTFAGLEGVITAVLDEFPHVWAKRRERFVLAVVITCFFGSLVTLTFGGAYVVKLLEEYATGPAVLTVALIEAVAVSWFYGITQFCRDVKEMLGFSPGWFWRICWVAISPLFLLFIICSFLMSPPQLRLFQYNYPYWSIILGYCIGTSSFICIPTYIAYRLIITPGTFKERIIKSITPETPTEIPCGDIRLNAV

Mus musculus [18] = experiment: Anesthetic activity in mouse assessed as time duration of loss of righting reflex; format: functional
Rattus norvegicus [19] = experiment: Anesthetic activity in rat assessed as time to walk at 2 times of HD50 concentration; format: functional
Rattus norvegicus [20] = experiment: Anesthetic activity in rat assessed as concentration required to induce hypnotic effect; format: functional, organism-based
[21] = biological target: Cannabinoid receptor 1 (Homo sapiens) (UniProt P21554); experiment: Inhibition of CB1 receptor (unknown origin) at 50 uM by radioligand receptor binding assay relative to control
Cannabinoid receptor 1 (Homo sapiens), sequence (P21554 whole entry): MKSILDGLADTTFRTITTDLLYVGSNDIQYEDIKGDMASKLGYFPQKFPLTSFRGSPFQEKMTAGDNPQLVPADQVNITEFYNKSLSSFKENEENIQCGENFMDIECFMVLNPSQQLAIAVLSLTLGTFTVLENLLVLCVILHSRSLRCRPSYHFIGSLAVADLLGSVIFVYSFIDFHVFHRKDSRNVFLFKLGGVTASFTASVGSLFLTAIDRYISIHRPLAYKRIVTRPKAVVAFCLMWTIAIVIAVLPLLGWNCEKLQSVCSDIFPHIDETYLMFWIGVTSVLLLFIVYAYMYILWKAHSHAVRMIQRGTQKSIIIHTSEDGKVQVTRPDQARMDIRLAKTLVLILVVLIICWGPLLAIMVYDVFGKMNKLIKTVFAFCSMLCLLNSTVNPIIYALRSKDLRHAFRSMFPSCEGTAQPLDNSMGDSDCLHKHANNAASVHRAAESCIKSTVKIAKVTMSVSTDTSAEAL

[22] = biological target: Sigma intracellular receptor 2 (Homo sapiens) (UniProt Q5BJF2); experiment: Inhibition of sigma 2 receptor (unknown origin) at 50 uM by radioligand receptor binding assay relative to control
Sigma intracellular receptor 2 (Homo sapiens), sequence (Q5BJF2 whole entry): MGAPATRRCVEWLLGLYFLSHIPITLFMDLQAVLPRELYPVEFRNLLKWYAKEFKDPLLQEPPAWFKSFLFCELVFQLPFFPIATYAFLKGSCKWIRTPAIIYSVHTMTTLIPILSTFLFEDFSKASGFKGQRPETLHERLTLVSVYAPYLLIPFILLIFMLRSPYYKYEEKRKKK

[23] = biological target: Glutamate [NMDA] receptor (Homo sapiens) (UniProt Q05586+Q12879+Q13224+O15399+O60391+Q14957+Q8TCU5); experiment: Inhibition of NMDA receptor (unknown origin) at 50 uM by radioligand receptor binding assay relative to control; format: protein-complex assay
Rattus norvegicus [24] = experiment: Anesthetic activity in rat assessed as time duration of loss of righting reflex; format: functional
[25] = Therapeutic index, ratio of LD50 for toxicity in rat to HD50 for anesthetic activity in rat; details: read-out: TI
[26] = Toxicity in mouse assessed as lethal dose; details: in vivo
[27] = biological target: Sodium-dependent noradrenaline transporter (Homo sapiens) (UniProt P23975); experiment: Inhibition of Noradrenaline receptor (unknown origin) at 50 uM by radioligand receptor binding assay relative to control
Sodium-dependent noradrenaline transporter (Homo sapiens), sequence (P23975 whole entry): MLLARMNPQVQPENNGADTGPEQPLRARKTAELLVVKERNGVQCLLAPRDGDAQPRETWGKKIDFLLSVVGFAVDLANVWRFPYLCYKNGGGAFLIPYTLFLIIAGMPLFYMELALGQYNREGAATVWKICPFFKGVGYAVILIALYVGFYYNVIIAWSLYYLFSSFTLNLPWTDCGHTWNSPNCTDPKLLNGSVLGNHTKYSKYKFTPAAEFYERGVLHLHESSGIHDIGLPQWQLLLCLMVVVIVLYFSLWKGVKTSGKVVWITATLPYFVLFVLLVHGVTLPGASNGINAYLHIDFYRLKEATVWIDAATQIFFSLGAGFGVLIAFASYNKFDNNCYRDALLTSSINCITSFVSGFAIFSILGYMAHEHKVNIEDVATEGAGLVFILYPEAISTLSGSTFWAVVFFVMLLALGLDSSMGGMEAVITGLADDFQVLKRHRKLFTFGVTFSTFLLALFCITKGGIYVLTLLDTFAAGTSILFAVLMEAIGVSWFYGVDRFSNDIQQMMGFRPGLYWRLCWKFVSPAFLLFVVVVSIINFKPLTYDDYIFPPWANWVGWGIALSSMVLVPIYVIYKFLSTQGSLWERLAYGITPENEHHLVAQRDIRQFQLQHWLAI

[28] = Toxicity in rabbit assessed as lethal dose; parameters: species or system Oryctolagus cuniculus; details: in vivo
Oryctolagus cuniculus [29] = experiment: Anesthetic activity in rabbit assessed as concentration required to induce hypnotic effect; format: functional, organism-based
Rattus norvegicus [30] = experiment: Anesthetic activity in rat assessed as onset time; format: functional
[31] = biological target: T1, 5-hydroxytryptamine receptor 1A (Homo sapiens) (UniProt P08908); experiment: Inhibition of 5-HT1A receptor (unknown origin) at 50 uM by radioligand receptor binding assay relative to control
T1 sequence (whole entry): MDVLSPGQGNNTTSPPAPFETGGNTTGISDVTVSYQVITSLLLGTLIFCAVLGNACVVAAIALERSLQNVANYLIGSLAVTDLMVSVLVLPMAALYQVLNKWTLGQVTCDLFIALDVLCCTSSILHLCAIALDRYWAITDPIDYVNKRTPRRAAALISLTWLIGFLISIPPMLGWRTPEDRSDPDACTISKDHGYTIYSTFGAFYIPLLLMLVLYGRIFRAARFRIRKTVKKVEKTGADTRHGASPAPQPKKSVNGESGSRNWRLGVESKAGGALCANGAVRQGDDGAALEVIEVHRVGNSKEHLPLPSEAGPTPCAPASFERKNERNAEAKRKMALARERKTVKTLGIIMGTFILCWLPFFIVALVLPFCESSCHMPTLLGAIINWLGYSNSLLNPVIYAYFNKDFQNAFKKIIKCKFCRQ

[32] = biological target: Mu-type opioid receptor (Homo sapiens) (UniProt P35372); experiment: Inhibition of mu opioid receptor (unknown origin) at 50 uM by radioligand receptor binding assay relative to control
Mu-type opioid receptor (Homo sapiens), sequence (P35372 whole entry): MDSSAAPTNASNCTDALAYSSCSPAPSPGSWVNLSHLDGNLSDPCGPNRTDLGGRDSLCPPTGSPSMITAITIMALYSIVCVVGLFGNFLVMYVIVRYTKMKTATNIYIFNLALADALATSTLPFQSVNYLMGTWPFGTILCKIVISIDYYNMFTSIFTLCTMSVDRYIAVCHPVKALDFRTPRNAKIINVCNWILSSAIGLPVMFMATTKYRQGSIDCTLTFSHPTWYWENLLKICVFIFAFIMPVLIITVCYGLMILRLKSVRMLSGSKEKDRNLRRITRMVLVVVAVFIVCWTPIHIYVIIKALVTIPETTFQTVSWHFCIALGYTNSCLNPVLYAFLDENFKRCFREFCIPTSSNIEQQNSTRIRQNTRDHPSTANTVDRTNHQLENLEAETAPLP

[33] = biological target: T2, Alpha-2A adrenergic receptor (Homo sapiens) (UniProt P08913); experiment: Inhibition of adrenergic alpha 2A receptor (unknown origin) at 50 uM by radioligand receptor binding assay relative to control
T2 sequence (whole entry): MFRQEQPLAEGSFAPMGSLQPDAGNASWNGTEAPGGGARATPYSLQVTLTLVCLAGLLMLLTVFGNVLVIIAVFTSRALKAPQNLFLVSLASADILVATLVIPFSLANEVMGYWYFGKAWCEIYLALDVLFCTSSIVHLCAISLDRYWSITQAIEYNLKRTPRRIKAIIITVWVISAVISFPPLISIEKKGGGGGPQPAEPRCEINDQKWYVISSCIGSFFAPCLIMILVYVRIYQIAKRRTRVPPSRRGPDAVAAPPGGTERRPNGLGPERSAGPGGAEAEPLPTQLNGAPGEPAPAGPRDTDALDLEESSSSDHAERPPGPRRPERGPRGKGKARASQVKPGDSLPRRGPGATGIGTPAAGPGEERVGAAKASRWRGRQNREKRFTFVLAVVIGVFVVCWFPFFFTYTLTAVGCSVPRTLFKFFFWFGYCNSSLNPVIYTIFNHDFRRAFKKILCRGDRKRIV

D(3) dopamine receptor (Homo sapiens), sequence (P35462 whole entry): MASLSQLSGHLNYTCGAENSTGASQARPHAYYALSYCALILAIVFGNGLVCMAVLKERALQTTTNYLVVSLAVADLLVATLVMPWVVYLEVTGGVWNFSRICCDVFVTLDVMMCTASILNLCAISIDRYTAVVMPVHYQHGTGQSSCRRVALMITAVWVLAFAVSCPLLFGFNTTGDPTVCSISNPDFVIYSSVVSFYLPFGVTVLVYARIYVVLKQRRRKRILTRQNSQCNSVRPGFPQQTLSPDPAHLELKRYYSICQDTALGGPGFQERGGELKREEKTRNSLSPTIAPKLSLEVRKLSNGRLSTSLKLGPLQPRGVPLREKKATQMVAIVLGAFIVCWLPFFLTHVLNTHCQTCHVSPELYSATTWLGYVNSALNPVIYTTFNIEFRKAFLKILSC

Question: What does the source list for CCCOC(=O)Cc1ccc(OCC(=O)N2CCN(c3ccccc3)CC2)c(OCC)c1?
Answer: Time (Mus musculus [1]): 6.4 s; inhibition [2]: 2.9%; logP [3]: 3.6; selectivity ratio [4]: 8; Time (Oryctolagus cuniculus [5]): 292.9 s; inhibition [6]: 9.1%; inhibition [7]: 1.2%; inhibition [8]: 89.8%; Time (Oryctolagus cuniculus [9]): 14.5 s; HD50 (median hypnotic dose) (Mus musculus [10]): 25 mg/kg; Time (Mus musculus [11]): 38.6 s; LD50 [12]: 72.9 mg/kg; inhibition [13]: 12.6%; selectivity ratio [14]: 18.1; inhibition [15]: 11.9%; Time (Oryctolagus cuniculus [16]): 81.7 s; inhibition [17]: 1.9%; Time (Mus musculus [18]): 83.3 s; Time (Rattus norvegicus [19]): 33.4 s; EC50 (Rattus norvegicus [20]): 7.1 mg/kg; inhibition [21]: 10.8%; inhibition [22]: 7.5%; inhibition [23]: 4.3%; Time (Rattus norvegicus [24]): 92.4 s; selectivity ratio [25]: 10.3; LD50 [26]: 200 mg/kg; inhibition [27]: 11.5%; LD50 [28]: 93.9 mg/kg; EC50 (Oryctolagus cuniculus [29]): 5.2 mg/kg; Time (Rattus norvegicus [30]): 9.6 s; inhibition [31]: 15.2%; inhibition [32]: 4.6%; inhibition [33]: 5.8%

From ChEMBL document CHEMBL5131414, “Design, synthesis, and evaluation of phenylpiperazine-phenylacetate derivatives as rapid recovery hypnotic agents” (Bioorg Med Chem Lett, 2022)
